The values below come from PMC9884962, “Pigments of aminophenoxazinones and viridomycins produced by termite-associated Streptomyces tanashiensis BYF-112” (Frontiers in Microbiology, 2023).

≈ marks a conversion by molar mass, not a printed value. Where “and” joins values, the source holds several entries; their conditions need not be identical. Identical values can stand only once. Like-named read-outs stand apart in the source and are kept apart here.

What all share (format): cell-based
Data set [1] has as its system Escherichia coli (ATCC8739). The data set can be described thus: Filter paper disc diffusion, E. coli. The conditions noted are these: 30 μg/filter paper (6 mm disc), 37°C, 12 h; dash = No inhibited. The procedure: (§1) The Staphylococcus aureus (ATCC6538), methicillin-resistant S. aureus (MRSA, SA2), Escherichia coli (ATCC8739) and Micrococcus tetragenus (ATCC35098) donated by Professor Ting Xue from Anhui Agricultural university were used as a target pathogen for the examination of antibacterial activity of the metabolites. The disc diffusion ([Özogul et al., 2022]) and minimum inhibitory concentrations (MICs; [Cui et al., 2022]) methods were performed to evaluate the antibacterial activities of the new natural metabolites 1, 2, and 4. Filter paper disks (6 mm) with metabolite dissolved in DMSO in a concentration (30 μg/filter paper) were added to the culture medium, and the plates were incubated at 37°C for 12 h. Filter papers with DMSO and levofloxacin were set as negative and positive controls, respectively. All experiments were performed in triplicate, and data were shown as mean values standard deviation. And the MICs of the compounds were determined by the method as we previously described ([Cui et al., 2022]).

Data set [2] has as its system Micrococcus tetragenus (ATCC35098). The data set can be described thus: Filter paper disc diffusion, M. tetragenus. The conditions noted are these: 30 μg/filter paper (6 mm disc), 37°C, 12 h, dash = No inhibited. The procedure:
as §1
Background: A growth-free zone around the sample is the usual read-out of agar diffusion tests.

Data set [3] concerns Staphylococcus aureus (ATCC6538). The data set can be described thus: Filter paper disc diffusion, S. aureus. The conditions noted are these: 30 μg/filter paper (6 mm disc), 37°C, 12 h, dash = No inhibited. The procedure:
as §1

The test system of data set [4] is methicillin-resistant S. aureus (MRSA, SA2). The data set can be described thus: Filter paper disc diffusion, MRSA. The conditions noted are these: 30 μg/filter paper (6 mm disc), 37°C, 12 h, dash = No inhibited. The procedure:
as §1

Data set [5] deals with Escherichia coli (ATCC8739). The data set can be described thus: Minimum inhibitory concentration assay, E. coli. The procedure:
as §1

Data set [6] has as its system Micrococcus tetragenus (ATCC35098). The data set can be described thus: Minimum inhibitory concentration assay, M. tetragenus. The conditions noted are these: for MIC: Micrococcus, ATCC35098. The procedure: as §1
Data set [7] deals with Staphylococcus aureus (ATCC6538). The data set can be described thus: Minimum inhibitory concentration assay, S. aureus. Particulars: for MIC: Staphylococcus aureus, ATCC6538. The procedure:
as §1

The subject of data set [8] is methicillin-resistant S. aureus (MRSA, SA2). The data set can be described thus: Minimum inhibitory concentration assay, MRSA. The procedure:
as §1

For data set [9], the system named is human malignant melanoma cell line (A375). Put plainly: MTT cytotoxicity assay, A375. Particulars: A-375, 48 h exposure, read-out: Cytotoxic activity IC50, A375. The procedure: (§2) The metabolites 1–4 were evaluated for their cytotoxic activities against human malignant melanoma cell line (A375), human ovarian cancer cell line (SKOV-3), human breast cancer cell line (MDA-MB231), human gastric cancer cell line (MGC-803) and human normal cell line (L-02) with the MTT method ([Wang et al., 2022]). The cell lines were maintained in Dulbecco’s modified eagle medium (DMEM) supplemented with 10% fetal bovine serum (FBS) along with 1% penicillin and streptomycin. Cells were grown at 37°C in an atmosphere with 5% CO2 and then seeded in 96-well plates and permitted to grow for 20 h. Then tested compounds at preset concentrations were added. The 3-(4,5-dimethylthiazol-2-yl)-2,5-diphenyltetrazolium bromide (MTT; 20 μl, 5 mg/ml) was added into each well after a 48 h exposure period. After an additional 4 h further incubation, the medium was replaced by DMSO (150 μl), then shaking the plates for 15 min. The absorbance at 490 nm were recorded. The percentage of cell viability was calculated using the following formula: Cell viability (%) = the OD of tested group/the OD of CK × 100%. Finally, IC50 values were determined by EXCEL. The azithromycin was used as positive control.
Background: Formazan colour is commonly taken as a measure of viable cells.

For data set [10], the system named is human ovarian cancer cell line (SKOV-3). Put plainly: MTT cytotoxicity assay, SKOV-3. The conditions noted are these: SK-OV-3, 48 h exposure, read-out: Cytotoxic activity IC50, SKOV-3. The procedure: as §2
The subject of data set [11] is human breast cancer cell line (MDA-MB231). The data set can be described thus: MTT cytotoxicity assay, MDA-231. Particulars: MDA-MB-231, 48 h exposure, read-out: Cytotoxic activity IC50, MDA-231. The procedure: as §2
Data set [12] relates to human gastric cancer cell line (MGC-803). The data set can be described thus: MTT cytotoxicity assay, MGC-803. Particulars: 48 h exposure, read-out: Cytotoxic activity IC50, MGC-803. The procedure:
as §2

Data set [13] is described as follows: MTT cytotoxicity assay, L-02. The conditions noted are these: human, L-02 normal liver cells, 48 h exposure, normal cell line, read-out: Cytotoxic activity IC50, L-02. The procedure: as §2
Data set [14] concerns human cancer cell lines (A375, SKOV-3, MDA-231 and MGC-803). The data set can be described thus: MTT cytotoxicity assay, tested human cancer cell lines together. Particulars: range over A375, SKOV-3, MDA-231 and MGC-803, read-out: IC50 values against the tested human cancer cell lines. The procedure:
as §2

Setting [15] is: Staphylococcus aureus, MRSA; read-out: Minimum inhibitory concentration (MIC), MRSA.

As for `C[C@H]1COc2c(N3CCN(C)CC3)c(F)cc3c(=O)c(C(=O)O)cn1c23` [Levofloxacin, levofloxacin, reference compound], the “Zone of inhibition (ZOI), Escherichia coli” value in [1] stood at 33.0 ± 1.0 mm. For the same compound, the results for the “Zone of inhibition (ZOI), Micrococcus tetragenus” value in [2] and in data set [2] (listed as levofloxacin) were 24.8 ± 0.6 mm and 24.8 mm, respectively. The “Zone of inhibition (ZOI), Staphylococcus aureus” value in data set [3] is on record as 28.9 ± 0.8 mm; in [3] (listed as levofloxacin) it was 28.9 mm. The “Zone of inhibition (ZOI), MRSA” value was found to be 15.2 ± 0.1 mm in data set [4] and 15.2 mm in data set [4] (listed as levofloxacin). For the same compound, the MIC in data set [5] amounted to 3.13 µg/mL (≈ 8.66 µM); in data set [6], 3.13 µg/mL (≈ 8.66 µM); in data set [7], 3.13 µg/mL (≈ 8.66 µM); in data set [8] (Staphylococcus aureus, MRSA, read-out: Minimum inhibitory concentration (MIC), MRSA), 6.25 µg/mL (≈ 17.3 µM).

Turning to `Nc1cc2nc3cc(CO)ccc3oc-2cc1=O` [Compound 1, 2-amino-8-hydroxymethyl-3H-phenoxazin-3-one], the concentration for half-maximal inhibition (IC50) was 67.7 ± 4.31 µM in data set [9]; 22.3 ± 3.78 µM in data set [10]; 55.9 ± 7.47 µM in [11]; 50.2 ± 7.01 µM in data set [12]; 22.3 to 67.7 µM in data set [14]. The IC50 at 48 h in data set [13] came out at 72 ± 7.22 µM. For the same compound, the “Zone of inhibition (ZOI), Escherichia coli” value in data set [1] is listed as “–^b”. Besides, in data set [2], the “Zone of inhibition (ZOI), Micrococcus tetragenus” value was 15.3 mm and 15. mm and 15.3 ± 0.2 mm. Also, the “Zone of inhibition (ZOI), Staphylococcus aureus” value in [3] is 17.2 mm and 17.2 ± 0.2 mm. In [4], the “Zone of inhibition (ZOI), MRSA” value was 15.3 mm and 15.3 ± 0.1 mm. The MIC was > 100 µg/mL in data set [5], 12.5 µg/mL (≈ 51.6 µM) in data set [6], 12.5 µg/mL (≈ 51.6 µM) in data set [7] and 25 µg/mL (≈ 103 µM) in data set [8] (setting [15]). Besides, in data set [7], the “Minimum inhibitory concentration (MIC), Staphylococcus aureus” value was found to be 12.5 µg/mL (≈ 51.6 µM).

In the case of `CC(=O)OCc1ccc2oc3cc(=O)c(N)cc-3nc2c1` [Compound 2, exfoliazone B], the IC50 is > 100 µM in [9], 75.8 ± 5.77 µM in [10], > 100 µM in data set [11] and 69.9 ± 1.94 µM in [12]. For the same compound, the IC50 at 48 h in data set [13] is > 100 µM. Also, the “Zone of inhibition (ZOI), Escherichia coli” value in data set [1] is “–^b”. In data set [2], the “Zone of inhibition (ZOI), Micrococcus tetragenus” value was “–^b”. Further, the “Zone of inhibition (ZOI), Staphylococcus aureus” value in data set [3] is “–^b”. In addition, the “Zone of inhibition (ZOI), MRSA” value in [4] is on record as “–^b”. The MIC in data set [5] is > 100 µg/mL; in data set [6], 50 µg/mL (≈ 176 µM); in data set [7] it was > 100 µg/mL; in [8] (setting [15]), > 100 µg/mL.

Regarding `CC[C@H]1OC(=O)[C@H](C)[C@@H](O[C@H]2C[C@@](C)(OC)[C@@H](O)[C@H](C)O2)[C@H](C)[C@@H](O[C@@H]2O[C@H](C)C[C@H](N(C)C)[C@H]2O)[C@](C)(O)C[C@@H](C)CN(C)[C@H](C)[C@@H](O)[C@]1(C)O` [Azithromycin, azithromycin, reference compound], the IC50 in [9] is 0.79 ± 0.13 µM; in data set [10], 0.41 ± 0.12 µM; in [11], 4.03 ± 0.43 µM; in [12], 1.57 ± 0.03 µM. Further, in data set [13], the concentration for half-maximal inhibition (IC50) at 48 h was determined as 7.34 ± 1.15 µM.

As to `CC(=O)Nc1cc(CNc2cc3nc4cc(CO)ccc4oc-3cc2=O)ccc1O` [Compound 3, exfoliazone C], the IC50 in data set [9], in [10], in data set [11] and in [12] was > 100 µM each time. Also, the IC50 at 48 h in data set [13] is > 100 µM.

With gentamycin sulfate [reference compound], in data set [6], the “Minimum inhibitory concentration (MIC), Micrococcus tetragenus” value was found to be 3.13 µg/mL. Also, the “Minimum inhibitory concentration (MIC), Staphylococcus aureus” value in data set [7] amounted to 3.13 µg/mL. Also, the “Minimum inhibitory concentration (MIC), MRSA” value in data set [8] was 6.25 µg/mL.

Take `CC(=O)OCc1ccc2oc3cc(=O)c(NC4OC(CO)C(O)C(O)C4O)cc-3nc2c1` (centres unmarked) [Compound 4, exfoliazoneglycoside]: the half-inhibitory concentration (IC50) in data set [9], in data set [10], in data set [11] and in data set [12] was > 100 µM each time. In addition, in data set [13], the IC50 at 48 h is > 100 µM. Besides, the “Zone of inhibition (ZOI), Escherichia coli” value in data set [1] was “–^b”. Besides, the “Zone of inhibition (ZOI), Micrococcus tetragenus” value in [2] is listed as “–^b”. The “Zone of inhibition (ZOI), Staphylococcus aureus” value in data set [3] is “–^b”. Also, the “Zone of inhibition (ZOI), MRSA” value in data set [4] was “–^b”. In addition, the MIC in data set [5], in data set [6], in [7] and in [8] (setting [15]) was > 100 µg/mL each time.

As usually defined, the IC50 is the point on the concentration scale where inhibition reaches its midpoint.
